Source: US11332459B2 (TEIJIN PHARMA LIMITED, priority 2017, dated 2022)
Structures can show the parent of a compound that is named as a salt.

Biological target: T1, human TRPC6 (Homo sapiens, UniProt Q9Y210)
T1 construct: expressed in transfected cells
T1 sequence (Q9Y210 1-931): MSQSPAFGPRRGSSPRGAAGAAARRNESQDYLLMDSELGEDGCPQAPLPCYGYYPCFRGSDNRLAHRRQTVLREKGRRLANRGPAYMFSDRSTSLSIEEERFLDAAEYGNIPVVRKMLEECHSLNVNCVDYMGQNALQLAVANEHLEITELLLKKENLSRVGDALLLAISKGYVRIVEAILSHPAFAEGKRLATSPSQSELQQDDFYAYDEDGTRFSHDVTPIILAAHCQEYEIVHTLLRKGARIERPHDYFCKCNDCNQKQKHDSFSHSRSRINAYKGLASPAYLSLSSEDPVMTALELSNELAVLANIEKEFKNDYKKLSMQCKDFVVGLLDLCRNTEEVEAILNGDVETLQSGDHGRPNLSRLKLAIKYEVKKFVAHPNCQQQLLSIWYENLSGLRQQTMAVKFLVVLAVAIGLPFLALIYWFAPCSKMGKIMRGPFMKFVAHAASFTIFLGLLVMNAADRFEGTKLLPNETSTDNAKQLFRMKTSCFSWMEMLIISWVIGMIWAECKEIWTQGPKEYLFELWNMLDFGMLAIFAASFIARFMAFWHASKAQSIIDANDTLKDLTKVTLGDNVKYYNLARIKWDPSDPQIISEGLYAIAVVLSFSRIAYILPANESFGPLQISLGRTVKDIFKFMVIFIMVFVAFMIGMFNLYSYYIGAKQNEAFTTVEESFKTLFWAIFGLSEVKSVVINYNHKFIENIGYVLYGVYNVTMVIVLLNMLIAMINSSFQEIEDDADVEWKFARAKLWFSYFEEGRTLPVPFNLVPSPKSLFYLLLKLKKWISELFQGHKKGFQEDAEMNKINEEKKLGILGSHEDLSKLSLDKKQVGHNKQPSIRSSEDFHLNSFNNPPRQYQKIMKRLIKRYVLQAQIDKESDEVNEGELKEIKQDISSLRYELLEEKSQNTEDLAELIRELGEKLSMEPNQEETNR
Experiment: TRPC6 calcium flux assay (FLIPR, OAG-stimulated calcium influx)
Assay type: cell-based
Conditions: HEK293 cells stably transfected with human TRPC6, read-out: hTRPC6 Potency
Outline: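 IC50 derived by plotting background-corrected peak fluorescence (180 s window, normalized to OAG-triggered signal vs buffer) against dose. Stable human TRPC6 HEK293 line was dye-loaded, exposed to compound 25 min, then challenged with 50 uM final OAG in 2 mM Ca2+ HEPES buffer pH 7.2, 0.5% DMSO.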

| Compound | IC50 [nM] |
| --- | --- |
| N#Cc1ccc(Cn2c(N3CCCC4(CCCN4)C3)nc3ccccc32)nc1 (racemic) [Example 128, 6-((2-((5R)-1,7-diazaspiro[4.5-]decan-7-yl)-1H-benzimidazol-1-yl)methyl)-3-pyridinecarbonitrile, 6-((2-((5S)-1,7-diazaspiro[4.5]decan-7-yl)-1H-benzimidazol-1-yl)methyl)-3-pyridinecarbonitrile] | 49.4 |
| N[C@@H]1CN(c2nc3cc(F)c(F)cc3n2Cc2c(Cl)cccc2Cl)CC[C@H]1F [Example 265, (3R,4R)-1-(1-(2,6-dichlorobenzyl)-5,6-difluoro-1H-benzimidazol-2-yl)-4-fluoro-3-piperidinamine] | 2860 |
| N[C@@H]1CN(c2nc3cc(F)c(F)cc3n2CC(=O)N(CC2CCCO2)C2CCS(=O)(=O)C2)CC[C@H]1F (stereo partly drawn) [Example 541, 2-(2-((3R,4R)-3-amino-4-fluoropiperidin-1-yl)-5,6-difluoro-1H-benzo[d]imidazol-1-yl)-N-(1,1-dioxidotetrahydrothiophen-3-yl)-N-((tetrahydrofuran-2-yl)methyl)acetamide] | > 3750 |
| COc1ccc2c(c1)nc(N1CCC(F)(F)[C@H](N)C1)n2Cc1ccc(C#N)cn1 [Example 137, 6-((2-((3R)-3-amino-4,4-difluoro-1-piperidinyl)-5-methoxy-1H-benzimidazol-1-yl)methyl)-3-pyridinecarbonitrile] | 36.2 |
| CNC(=O)C1CCN(C(=O)Cn2c(N3CC[C@@H](F)[C@H](N)C3)nc3cc(F)c(F)cc32)CC1 [Example 534, 1-(2-(2-((3R,4R)-3-amino-4-fluoropiperidin-1-yl)-5,6-difluoro-1H-benzo[d]imidazol-1-yl)acetyl)-N-methylpiperidine-4-carboxamide] | > 3750 |
| NC(=O)c1ccc(Cn2c(N3CC[C@@H](F)[C@H](N)C3)nc3ccccc32)nc1 [Example 436, 6-((2-((3R,4R)-3-amino-4-fluoropiperidin-1-yl)-1H-benzo[d]imidazol-1-yl)methyl)nicotinamide] | 52.4 |
| N#Cc1ccc(Cn2c(N3CC[C@@H](F)[C@H](N)C3)nc3cnccc32)cc1 [Example 412, 4-((2-((3R,4R)-3-amino-4-fluoropiperidin-1-yl)-1H-imidazo[4,5-c]pyridin-1-yl)methyl)benzonitrile] | 322 |
| N[C@@H]1CN(c2nc3cc(F)c(F)cc3n2Cc2nnc(C(F)F)s2)CC[C@H]1F [Example 560, (3R,4R)-1-(1-((5-(difluoromethyl)-1,3,4-thiadiazol-2-yl)methyl)-5,6-difluoro-1H-benzo[d]imidazol-2-yl)-4-fluoropiperidin-3-amine] | 18.7 |
| C[C@@H](C(=O)N(C)C)n1c(N2CC[C@@H](F)[C@H](N)C2)nc2cc(F)c(F)cc21 [Example 280, (2S)-2-(2-((3R,4R)-3-amino-4-fluoro-1-piperidinyl)-5,6-difluoro-1H-benzimidazol-1-yl)-N,N-dimethylpropanamide] | 1.47 |
| N#Cc1ccc(Cn2c(N3CC[C@@H](F)[C@H](N)C3)nc3ccc(OC(F)F)cc32)nc1 [Example 118, 6-((2-((3R,4R)-3-amino-4-fluoro-1-piperidinyl)-6-(difluoromethoxy)-1H-benzimidazol-1-yl)methyl)-3-pyridinecarbonitrile] | 0.855 |
| CN(C(=O)Cn1c(N2CC[C@@H](F)[C@H](N)C2)nc2cc(F)c(F)cc21)C1CCOC1 (stereo partly drawn) [Example 611, 2-(2-((3R,4R)-3-amino-4-fluoropiperidin-1-yl)-5,6-difluoro-1H-benzo[d]imidazol-1-yl)-N-methyl-N-(tetrahydrofuran-3-yl)acetamide] | 22.4 |
| N#Cc1ccc(Cn2c(N3CCC(F)(F)[C@H](N)C3)nc3cc(C#N)ccc32)cc1 [Example 161, 2-((3R)-3-amino-4,4-difluoro-1-piperidinyl)-1-(4-cyanobenzyl)-1H-benzimidazole-5-carbonitrile] | 133 |
| N#Cc1ccc(Cn2c(N3CC[C@H]4OCCN[C@@H]4C3)nc3ccccc32)nc1 [Example 131, 6-((2-((4aR,8aR)-hexahydro-2H-pyrido[4,3-b][1,4]oxazin-6(5H)-yl)-1H-benzimidazol-1-yl)methyl)-3-pyridinecarbonitrile] | 82.6 |
| C[C@@H](C#N)N(C)C(=O)Cn1c(N2CC[C@@H](F)[C@H](N)C2)nc2cc(F)c(F)cc21 [Example 610, 2-(2-((3R,4R)-3-amino-4-fluoropiperidin-1-yl)-5,6-difluoro-1H-benzo[d]imidazol-1-yl)-N-((S)-1-cyanoethyl)-N-methylacetamide] | 21.2 |
| C[C@@H](c1ccc(C#N)cn1)n1c(N2CC[C@H]3OCCN[C@@H]3C2)nc2cc(F)cc(F)c21 [Example 274, 6-((1S)-1-(5,7-difluoro-2-((4aR,8aR)-hexahydro-2H-pyrido[4,3-b][1,4]oxazin-6(5H)-yl)-1H-benzimidazol-1-yl)ethyl)-3-pyridinecarbonitrile] | 0.328 |
| Cc1nc(-c2ccccc2)sc1Cn1c(N2CC[C@@H](F)[C@H](N)C2)nc2cc(F)ccc21 [Example 593, (3R,4R)-4-fluoro-1-(5-fluoro-1-((4-methyl-2-phenylthiazol-5-yl)methyl)-1H-benzo[d]imidazol-2-yl)piperidin-3-amine] | 2120 |
| NC(=O)C1CCN(C(=O)Cn2c(N3CC[C@@H](F)[C@H](N)C3)nc3cc(F)c(F)cc32)CC1 [Example 532, 1-(2-(2-((3R,4R)-3-amino-4-fluoropiperidin-1-yl)-5,6-difluoro-1H-benzo[d]imidazol-1-yl)acetyl)piperidine-4-carbaxamide] | > 3750 |
| N[C@@H]1CN(c2nc3ccc(C(F)(F)F)cc3n2CC(=O)N2CCOCC2)CC[C@@H]1F [Example 464, 2-(2-((3R,4S)-3-amino-4-fluoropiperidin-1-yl)-6-(trifluoromethyl)-1H-benzo[d]imidazol-1-yl)-1-morpholinoethan-1-one] | 63.1 |
| CC[C@@H](c1ccc(C#N)cn1)n1c(N2CCC[C@H](N)C2)nc2ccccc21 [Example 300, 6-((S)-1-(2-((S)-3-aminopiperidin-1-yl)-1H-benzo[d]imidazol-1-yl)propyl)nicotinonitrile hydrochloride] | 406 |
| N[C@@H]1CN(c2nc3cc(F)c(F)cc3n2Cc2nnc(C3CC3)o2)CC[C@H]1F [Example 581, (3R,4R)-1-(1-((5-cyclopropyl-1,3,4-oxadiazol-2-yl)methyl)-5,6-difluoro-1H-benzo[d]imidazol-2-yl)-4-fluoropiperidin-3-amine] | 368 |
| Cc1cc2c(cc1F)nc(N1CC[C@@H](F)[C@H](N)C1)n2Cc1ccc(C#N)cn1 [Example 115, 6-((2-((3R,4R)-3-amino-4-fluoro-1-piperidinyl)-5-fluoro-6-methyl-1H-benzimidazol-1-yl)methyl)-3-pyridinecarbonitrile] | 0.446 |
| CN(CC(F)(F)F)C(=O)Cn1c(N2CC[C@@H](F)[C@H](N)C2)nc2c(F)cc(F)cc21 [Example 558, 2-(2-((3R,4R)-3-amino-4-fluoropiperidin-1-yl)-4,6-difluoro-1H-benzo[d]imidazol-1-yl)-N-methyl-N-(2,2,2-trifluoroethyl)acetamide] | 16.1 |
| C[C@@H](c1ccc(Cl)cn1)n1c(N2CC[C@@H](F)[C@H](N)C2)nc2ccccc21 [Example 216, (3R,4R)-1-(1-((S)-1-(5-chloropyridin-2-yl)ethyl)-1H-benzo[d]imidazol-2-yl)-4-fluoropiperidin-3-amine hydrochloride] | 11.4 |
| N#Cc1ccc(Cn2c(N3CC[C@@H](F)[C@H](N)C3)nc3ccccc32)cc1 [Example 173, 4-((2-((3R,4R)-3-amino-4-fluoropiperidin-1-yl)-1H-benzo[d]imidazol-1-yl)methyl)benzonitrile] | 1.38 |
| CO[C@@H]1CCN(c2nc3cc(F)ccc3n2CC(=O)N(C)CC(F)(F)F)C[C@H]1N [Example 483, 2-(2-((3R,4R)-3-amino-4-methoxypiperidin-1-yl)-5-fluoro-1H-benzo[d]imidazol-1-yl)-N-methyl-N-(2,2,2-trifluoroethyl)acetamide] | 2740 |
| N[C@@H]1CN(c2nc3ccc(F)cc3n2Cc2ncc(Cl)cn2)CC[C@H]1O [Example 205, (3R,4R)-3-amino-1-(1-((5-chloropyrimidin-2-yl)methyl)-6-fluoro-1H-benzo[d]imidazol-2-yl)piperidin-4-ol] | 3 |
| COC(=O)C1CCN(C(=O)Cn2c(N3CC[C@@H](F)[C@H](N)C3)nc3cc(F)c(F)cc32)CC1 [Example 512, methyl 1-(2-(2-((3R,4R)-3-amino-4-fluoropiperidin-1-yl)-5,6-difluoro-1H-benzo[d]imidazol-1-yl)acetyl)piperidine-4-carboxylate] | 162 |
